From PMC12487869, “Toward Imaging of the GABA Transporter Type 1 In Vivo: Quantitative Evaluation of 4 Novel PET Radiotracers in Nonhuman Primates” (Journal of Nuclear Medicine, 2025)

Target: T1, GAT-1 (Macaca mulatta, UniProt H9ELS5)
T1 construct: from tissue; host or cells: brain of living rhesus monkeys (in vivo PET)
Assay: Occupancy plots from baseline and tiagabine blocking PET scans (occupancy, VND, BPND)
Type: in vivo, rhesus monkeys (Macaca mulatta)
Design: key to BPND: BPND = VT/VND − 1 (dimensionless)
Conditions: for VND: occupancy plot; for Occupancy: tiagabine 0.5 mg/kg occupancy measured with this radiotracer
Procedure: Before each scan, each monkey was sedated with alfaxalone (2 mg/kg), midazolam (0.3 mg/kg), and dexmedetomidine (0.01 mg/kg), and anesthesia was maintained with 1.5%–2.5% isoflurane. Heart rate, blood pressure, respiration rate, and oxygen saturation were monitored continuously. An intravenous line was placed in the saphenous or cephalic vein for delivery of the radiotracer, as well as tiagabine during blocking studies (0.5 mg/kg administered 19 ± 4 min before radiotracer injections). A catheter was placed in the radial or tibial artery for blood sampling.
Occupancy plots ([26]) were used to estimate tiagabine occupancy and the nondisplaceable volume of distribution (VND). This VND value was used to compute the nondisplaceable binding potential (BPND = VT/VND − 1). To compare the performance between 2 radiotracers, a Guo plot ([27]) was created, using baseline VT values, to assess the relative affinity and BPND values of each radiotracer.

T1 sequence (H9ELS5 1-599): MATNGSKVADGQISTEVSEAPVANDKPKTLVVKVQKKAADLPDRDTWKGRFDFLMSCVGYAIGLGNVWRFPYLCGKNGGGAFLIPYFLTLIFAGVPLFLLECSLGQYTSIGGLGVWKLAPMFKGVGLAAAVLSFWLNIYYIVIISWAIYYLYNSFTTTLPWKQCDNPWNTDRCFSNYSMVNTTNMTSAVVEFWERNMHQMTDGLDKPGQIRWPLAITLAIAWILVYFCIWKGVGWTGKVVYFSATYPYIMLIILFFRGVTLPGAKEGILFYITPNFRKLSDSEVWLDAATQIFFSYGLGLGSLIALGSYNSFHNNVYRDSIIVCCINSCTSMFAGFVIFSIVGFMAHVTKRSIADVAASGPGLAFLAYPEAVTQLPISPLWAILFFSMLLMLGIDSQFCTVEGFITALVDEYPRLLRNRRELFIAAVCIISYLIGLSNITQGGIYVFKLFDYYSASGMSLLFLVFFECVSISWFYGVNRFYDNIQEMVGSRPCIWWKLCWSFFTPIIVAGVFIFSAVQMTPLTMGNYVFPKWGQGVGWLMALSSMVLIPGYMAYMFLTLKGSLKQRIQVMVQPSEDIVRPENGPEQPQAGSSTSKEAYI

`Cc1ccccc1C(=CCCN1CCCC(C(=O)O)C1)c1ccccc1[18F]` (centres unmarked) [^18F-GATT-44] was tested, and the BPND (Average of ROIs, baseline) was 2.88 ± 0.59, the BPND (Average of ROIs, blocking) was 0.90 ± 0.13 and the BPND (Brain stem, baseline, BPND = VT/VND – 1 with averaged VND) was 1.98 ± 0.48. It also gave a BPND (Brain stem, blocking, BPND = VT/VND – 1 with averaged VND) of 0.66 ± 0.23, a BPND (Caudate nucleus, baseline) of 1.57 ± 0.15 and a BPND (Caudate nucleus, blocking) of 0.45 ± 0.12. The BPND (Cerebellum, baseline) was 2.84 ± 0.44, the BPND (Cerebellum, blocking) was 0.83 ± 0.15 and the BPND (Cingulate cortex, baseline) was 3.91 ± 0.44. For the same compound, the BPND (Cingulate cortex, blocking) was 1.46 ± 0.20, the BPND (Frontal cortex, baseline) was 3.26 ± 0.52 and the BPND (Frontal cortex, blocking) was 1.04 ± 0.04. For the same compound, the BPND (Hippocampus, baseline) was 2.40 ± 1.25, the BPND (Hippocampus, blocking) was 0.64 ± 0.08 and the BPND (Insula, baseline) was 4.08 ± 0.76. The BPND (Insula, blocking) was 1.25 ± 0.08, the BPND (Occipital cortex, baseline) was 4.19 ± 0.84 and the BPND (Occipital cortex, blocking) was 1.32 ± 0.13. It also gave a BPND (Putamen, baseline) of 2.09 ± 0.06, a BPND (Putamen, blocking) of 0.64 ± 0.14 and a BPND (Temporal cortex, baseline) of 4.10 ± 1.41. It also gave a BPND (Temporal cortex, blocking) of 1.20 ± 0.05, a BPND (Thalamus, baseline) of 1.24 ± 0.11 and a BPND (Thalamus, blocking) of 0.36 ± 0.20. For the same compound, the VND (monkey 1) was 1.03 mL/cm^3, the VND (monkey 2) was 0.96 mL/cm^3 and the VND (monkey 3) was 0.64 mL/cm^3. The “VND, mean ± SD across monkeys” value (occupancy plots, 3 monkeys, average rSE of 16%) was 0.88 ± 0.21 mL/cm^3, the Occupancy (monkey 1) was 65% and the Occupancy (monkey 2) was 70%. For the same compound, the Occupancy (monkey 3) was 71% and the “Occupancy (overall)” value (tiagabine blocking) was 69%.
